Results taken from PubChem BioAssay AID2384 (Southern Research Specialized Biocontainment Screening …, 2010).
“And” between values parts separate entries of the source, which are not always exact repeats. Equal values may be shown once.

Tested on: S. typhi GFP reporter counter-screen, fluorescence, 4 h
Experiment: S. typhi counter-screen signal inhibition – fluorescence, 4 h, counter-screen for PhoP regulon inhibitor project, dose response (AID 2384)

**Q.** `Clc1ccc2[nH]c3c(c2c1)CCc1cn[nH]c1-3` was tested. Which IC50 did it give?
**A.** Its IC50 is 105 µM.

**Q.** With `Fc1ccc([C@@H]2CCNC[C@H]2COc2ccc3c(c2)OCO3)cc1` as the compound, how does the IC50 read?
**A.** Its IC50 is 19.2 µM.

**Q.** For `O=C(CCN1CCOCC1)c1ccc(Br)cc1`, which IC50 is on record?
**A.** The IC50 was 72.5 µM.

**Q.** For `Cc1ccc(NC(=O)CNCc2ccccc2)cc1Br`, which IC50 is on record?
**A.** The IC50 was 43 µM.

**Q.** `NCCCC[C@H]1CN=C(N)N1CCC12CC3CC(CC(C3)C1)C2` was tested. Which IC50 did it give?
**A.** Its IC50 is 86.4 µM.

**Q.** How did the IC50 turn out when `CC(C(=O)NC1C=CS(=O)(=O)C1)N1C(=O)/C(=C/c2cccc(Cl)c2)SC1=S` (centres undefined) was run?
**A.** Its IC50 is 59.2 µM.

**Q.** Which IC50 does the source give for `CCOC(=O)N1CCN(CCC(=O)c2ccc(Br)cc2)CC1` here?
**A.** Its IC50 is 82.3 µM.

**Q.** `Cc1nnc(N/N=C/c2ccccn2)[nH]c1=O` was tested. Which IC50 did it give?
**A.** Its IC50 is 31.4 µM.

**Q.** With `COc1ccccc1N1CCN(Cc2ccc(O)c3ncccc23)CC1` as the compound, how does the IC50 read?
**A.** Its IC50 is 32.5 µM.

**Q.** With `Cc1ccc(O)c(Nc2c3ccccc3nc3ccccc23)c1` as the compound, how does the IC50 read?
**A.** The IC50 was 50.2 µM.

**Q.** Which IC50 does the source give for `Cc1cc(C)c2sc(N(CCCN(C)C)C(=O)COc3ccc(Cl)cc3)nc2c1` here?
**A.** Its IC50 is 34.8 µM.

**Q.** How did the IC50 turn out when `O=C(NNc1nc2ccc(F)cc2s1)c1cccc(F)c1` was run?
**A.** The IC50 was 46.8 µM.

**Q.** Which IC50 does the source give for `COC(=O)C1=C(C)N(Cc2ccccc2)C(=NCc2cccc(C(F)(F)F)c2)N[C@H]1c1cccc(F)c1` here?
**A.** Its IC50 is 35.3 µM.

**Q.** Which IC50 does the source give for `Nc1ncn([C@@H]2O[C@H](CO)[C@@H](O)[C@H]2O)c(=O)n1` here?
**A.** The IC50 was 46.2 µM.

**Q.** How did the IC50 turn out when `CC1CCC(C(C)C)C(OC(=O)Cn2c(COc3ccccc3)[n+](C)c3ccccc32)C1` (centres undefined) was run?
**A.** The IC50 was 25.6 µM.

**Q.** For `CC1CCC(C(C)C)C(OC(=O)Cn2c(-c3ccc(Br)cc3)[n+](C)c3ccccc32)C1` (centres undefined), which IC50 is on record?
**A.** Its IC50 is 73.6 µM.

**Q.** With `CC1(C)N=C(N)N=C(N)N1c1ccc(Oc2ccc(Cl)cc2)c(Cl)c1` as the compound, how does the IC50 read?
**A.** The IC50 was 36.3 µM.

**Q.** Which IC50 does the source give for `O=C1c2ccccc2NC(c2ccc(-c3ccc(Br)cc3)o2)N1O` (centres undefined) here?
**A.** The IC50 was 25.5 µM.

**Q.** Which IC50 does the source give for `CN(C)CCCN1c2ccccc2Sc2ccc(Cl)cc21` here?
**A.** The IC50 was 34.3 µM and 31.8 µM.

**Q.** Which IC50 does the source give for `O=C(Cn1cc[n+](CC(=O)c2ccc(Cl)cc2Cl)c1)c1ccc(Cl)cc1Cl` here?
**A.** Its IC50 is 27.6 µM.

**Q.** Which IC50 does the source give for `CC(C(=O)c1ccc(-c2ccccc2)cc1)[n+]1cccc(NC(=O)c2ccccc2)c1` (centres undefined) here?
**A.** The IC50 was 19.4 µM.

**Q.** For `CN(C)CCCNc1cc(C(C)(C)C)nc2c(-c3ccc(Cl)cc3)cnn12`, which IC50 is on record?
**A.** The IC50 was 18.7 µM.

**Q.** With `CC[C@H]1OC(=O)[C@H](C)[C@@H](O[C@H]2C[C@@](C)(OC)[C@@H](O)[C@H](C)O2)[C@H](C)[C@@H](O[C@@H]2O[C@H](C)C[C@H](N(C)C)[C@H]2O)[C@](C)(O)C[C@@H](C)CN(C)[C@H](C)[C@@H](O)[C@]1(C)O` as the compound, how does the IC50 read?
**A.** The IC50 was 1.28 µM.

**Q.** Which IC50 does the source give for `Nc1cc(=O)[nH]c(=S)n1-c1cccc(C(F)(F)F)c1` here?
**A.** Its IC50 is 145 µM.

**Q.** Which IC50 does the source give for `COC(=O)C(C)NC(=S)N1CCN(c2c(F)cc3c(=O)c(C(=O)O)cn(C4CC4)c3c2OC)CC1C` (centres undefined) here?
**A.** Its IC50 is 39.6 µM.

**Q.** With `COc1ccc(N2CC(C(=O)N/N=C/c3cc([N+](=O)[O-])ccc3O)CC2=O)cc1` (centres undefined) as the compound, how does the IC50 read?
**A.** Its IC50 is 93.2 µM.

**Q.** For `O=C(CCc1ccccc1)NNC(=S)NC(=O)c1ccccc1`, which IC50 is on record?
**A.** Its IC50 is 63 µM.

**Q.** `CCCCCCCCCCOC(=O)Cn1c(COc2cccc(C)c2)[n+](C)c2ccccc21` was tested. Which IC50 did it give?
**A.** Its IC50 is 9.7 µM.

**Q.** For `C#CCOCCOCCOCCNc1nc(N2CCN(C(=O)CCCCCCCCCCNC(=O)[C@@H](CCSC)n3cc(CCO)nn3)CC2)nc(N2CCN(C(=O)CCCCCCCCCCNC(=O)[C@H]([C@@H](C)CC)n3cc(CCCCN=C(N)N)nn3)CC2)n1`, which IC50 is on record?
**A.** The IC50 was 83.1 µM.

**Q.** `CCCCc1c(O)nc(SCC(=O)Nc2ccc3c(c2)CCC3)[nH]c1=O` was tested. Which IC50 did it give?
**A.** Its IC50 is 112 µM.

**Q.** How did the IC50 turn out when `O=C(CN1C2=NCCCN2c2ccccc21)c1ccc(Br)s1` was run?
**A.** Its IC50 is 40.2 µM.

**Q.** Which IC50 does the source give for `C#CCOCCOCCOCCNc1nc(N2CCN(C(=O)[C@H](Cc3ccc(O)cc3)n3cc([C@@H](N)CC(C)C)nn3)CC2)nc(N2CCN(C(=O)[C@H](Cc3cc4ccccc4[nH]3)n3cc([C@@H](N)CC(C)C)nn3)CC2)n1` here?
**A.** The IC50 was 41.8 µM.

**Q.** Which IC50 does the source give for `Cc1ccccc1C(=O)Nc1cccc(C(=O)N/N=C/c2cc(Cl)cc([N+](=O)[O-])c2O)c1` here?
**A.** Its IC50 is 32.9 µM.

**Q.** With `Cc1nc2ccccn2c1C(=O)N/N=C/c1ccc([N+](=O)[O-])o1` as the compound, how does the IC50 read?
**A.** The IC50 was 42.6 µM.

**Q.** For `Oc1cccc(C=NCc2ccccc2)c1O`, which IC50 is on record?
**A.** The IC50 was 73.7 µM.

**Q.** `Cc1ccc(S(=O)(=O)NNc2ccccc2)cc1` was tested. Which IC50 did it give?
**A.** The IC50 was 89.5 µM.

**Q.** With `CCN1/C(=C/C=C/C=C/c2sc3ccccc3[n+]2CC)Sc2ccccc21` as the compound, how does the IC50 read?
**A.** Its IC50 is 9.68 µM.

**Q.** Which IC50 does the source give for `CC(C)(C)c1ccc(OCCCNC2CCCC2)cc1` here?
**A.** Its IC50 is 77.7 µM.

**Q.** `NC1=NC[C@H](CC2CCCCC2)N1CCc1cc(C(F)(F)F)cc(C(F)(F)F)c1` was tested. Which IC50 did it give?
**A.** Its IC50 is 35.2 µM.

**Q.** Which IC50 does the source give for `Cc1cc(C)c(NC(=O)C[N+](C)(C)CC(O)COc2cccc3ccccc23)c(C)c1` (centres undefined) here?
**A.** Its IC50 is 63.8 µM.

**Q.** Which IC50 does the source give for `Cc1cc(N2CCC(C)CC2)nc2cccc(O)c12` here?
**A.** Its IC50 is 80.2 µM.

**Q.** With `CCOC(=O)c1c(-c2ccccc2)oc2ccc(OCC(O)CNCCN(C)C)cc12` (centres undefined) as the compound, how does the IC50 read?
**A.** Its IC50 is 36.8 µM.

**Q.** Which IC50 does the source give for `CCCCCCCCCCOC(=O)Cn1c(COc2ccc(Cl)cc2)[n+](C)c2ccccc21` here?
**A.** The IC50 was 10.1 µM.

**Q.** For `CCCCOc1ccc(CSC(=N)N)cc1Cl`, which IC50 is on record?
**A.** The IC50 was 19.1 µM.

**Q.** How did the IC50 turn out when `CCCCCCCCCCCCCCCC[n+]1ccc(/C=N/O)cc1` was run?
**A.** Its IC50 is 36.9 µM.

**Q.** How did the IC50 turn out when `Clc1ccc(OCCCNCc2ccccc2)c(Br)c1` was run?
**A.** The IC50 was 28.4 µM.

**Q.** For `COc1cc(Br)cc(/C=N/c2ncn[nH]2)c1O`, which IC50 is on record?
**A.** Its IC50 is 61.3 µM.

**Q.** For `COc1ccccc1NC(=O)CN1CCC(c2nc3ccc(C)cc3[nH]2)CC1`, which IC50 is on record?
**A.** Its IC50 is 143 µM.

**Q.** For `CNC[C@@H](Cc1ccccc1)NC[C@@H](CC1CCCCC1)NCCCc1ccccc1`, which IC50 is on record?
**A.** The IC50 was 19.8 µM.

**Q.** With `O=C(Oc1c(Br)cc([N+](=O)[O-])cc1Br)c1cccnc1` as the compound, how does the IC50 read?
**A.** The IC50 was 28.5 µM.

**Q.** For `S=C(Nc1cc(Cl)cc(Cl)c1)NC1CCN(Cc2ccccc2)CC1`, which IC50 is on record?
**A.** Its IC50 is 82 µM.

**Q.** For `c1ccc(-c2nc3ccccc3[nH]2)cc1`, which IC50 is on record?
**A.** The IC50 was 93.5 µM.

**Q.** `CCCCCCCCCCOC(=O)Cn1c(COc2cccc(OC)c2)[n+](C)c2ccccc21` was tested. Which IC50 did it give?
**A.** Its IC50 is 10.2 µM.

**Q.** For `O=C(Cc1cccs1)N/N=C\c1ccc([N+](=O)[O-])s1`, which IC50 is on record?
**A.** The IC50 was 50.9 µM.
